# Data: patent US10172869B2, “Progesterone receptor modulators for use in the therapy of uterine fibroids” (PregLem SA, priority 2013, dated 2019)
# Columns and labels:
# Assay type in all cases: in vivo, human
# [1] = Example 1 Phase III study: adverse events (TEAEs, SAEs)
# Description: (§1) Multicenter, Phase III Study to Investigate the Efficacy and Safety of 3-Months of Treatment with UPA Followed by 10 Days of Treatment with NETA or Placebo
# (§2) All patients received a 3-month treatment course of UPA 10 mg once-daily followed by randomized oral NETA 10 mg once-daily or matching placebo for 10 days. UPA treatment was started during the first 4 days of menstruation. NETA or placebo was taken daily for the first 10 days following the cessation of UPA. The schedule incorporated the potential for women to enter an extension study involving repeated intermittent courses of UPA 10 mg.
# (§3) The safety endpoints included the number and proportion of patients experiencing treatment-emergent adverse events (TEAEs), including clinically significant changes in vital signs, physical examination, gynecological or breast examination, electrocardiogram (ECG), ovarian ultrasound, changes from baseline in endometrial thickness and clinically significant changes in endometrium biopsy. Other safety endpoints were change from baseline in hematology, coagulation, biochemistry, lipids, adrenocorticotropic hormone (ACTH), thyroid stimulating hormone (TSH) and prolactin, as well as serum levels of estradiol (E2).
# [2] = system: myomas and heavy uterine bleeding; assay: Example 2 long-term extension study: uterine bleeding, amenorrhea and return of menstruation (PBAC); settings: for subjects with more than 9 days of any level of bleeding (heavy bleeding, bleeding or spotting) / percentage of subjects in amenorrhea: ITT Population; for mean time to amenorrhea / median time to amenorrhea: from first dose of UPA in the course
# Description: (§4) Long-Term Extension of a Multicenter, Phase III Study to Investigate the Efficacy and Safety of 3-Months of Treatment with UPA Followed by 10 Days of Treatment with NETA or Placebo in Subjects with Myomas and Heavy Uterine Bleeding
# (§5) The study consisted of three periods of 3 months open-label UPA treatment, each followed by 10 days of double-blind treatment with NETA or placebo and then a drug-free period. Subjects were randomly assigned to a NETA or matching placebo arm with a 1:1 ratio.
# In study described in Example 1, 251 subjects were screened at 21 sites and 209 subjects started treatment with UPA of which 202 attended the end of UPA treatment visit. Of those that completed study of Example 1 (190 subjects), 132 subjects from 19 sites opted to continue in to the extension study.
# (§6) In the study of Example 1 and for each present study courses, UPA 10 mg was orally administered once daily for a period of 90 days, followed by 10 mg NETA or matching placebo once daily for a period of 10 days. The first treatment course in the present study consisted of 90 days UPA 10 mg treatment followed by 10 days of double-blind treatment (same as in Example 1 study) started between the first and fourth day of menstruation (inclusive) following visit after the end of treatment, or one month later if uterine sparing surgery had been performed and myomas were still present. The second and third treatment courses of the present study started on the first day of menstruation following visits after ends of each treatment courses, respectively.
# (§7) Parameters assessed are the same as it was described in Example 1.
# uterine fibroids [3] = assay: Example 1 Phase III study: uterine bleeding, amenorrhea and return of menstruation (PBAC)
# Description: as §1, §2
# (§8) In the clinical trial the effect of treatment of uterine fibroids have been assessed by means of parameters such as uterine bleeding using the pictorial blood-loss assessment chart (PBAC), condition of the uterus using transvaginal ultrasound (TVUS) and endometrial biopsy, endometrial histology using endometrial biopsy and pain using the Short-Form McGill Pain Questionnaire (SF-MPQ and quality of life using the Uterine Fibroid Symptom and Health-Related Quality of Life (UFS-QoL) questionnaire.
# (§9) The efficacy end points were: percentage of amenorrheic patients at the end of UPA treatment; change from baseline in the volume of the three largest myomas to end of UPA treatment and 2 weeks after menstruation following end of NETA/placebo treatment; and change from baseline in pain and QoL to end of UPA treatment.
# (§10) Exploratory endpoints included assessment of the strength of the first menstruation after UPA treatment (using PBAC), time to return of menstruation following treatment end, and frequency of post-treatment PAEC observed in the endometrial biopsy after return of menstruation.
# endometrium [4] = assay: Example 2 long-term extension study: endometrium thickness and endometrium biopsy
# Description: as §4, §5, §6, §7
# endometrium [5] = assay: Example 1 Phase III study: endometrial histology (biopsy); settings: for percentage of non-physiological endometrial features: after treatment, 10.9% at screening
# Description: as §1, §2, §8, §3, §10
# [6] = Example 2 long-term extension study: safety assessments (TEAEs, SAEs); settings: intermittent repeated administration schedule
# Description: as §4, §5, §6, §7
# endometrium [7] = assay: Example 1 Phase III study: endometrial thickness
# Description: as §1, §2, §3
# myomas = assay: Example 2 long-term extension study: volume of the 3 largest myomas and uterine volume
# Description: as §4, §5, §6, §7
# [8] = Example 1 Phase III study: serum hormones and biochemistry (E2, ACTH, TSH, prolactin, transaminases)
# Description: as §1, §2, §3
# [9] = system: myomas and heavy uterine bleeding; assay: Example 2 long-term extension study: surgery undertaken compared to planned; settings: by the end of study; ITT population of 132, surgery initially planned for 66 (50%)
# Description: as §4, §5, §6
# [10] = system: myomas and heavy uterine bleeding; assay: Example 2 long-term extension study: pain (SF-MPQ) and quality of life (UFS-QoL, EQ-5D)
# Description: as §4, §5, §6, §7
# uterine fibroids [11] = assay: Example 1 Phase III study: pain (SF-MPQ, VAS) and quality of life (UFS-QoL); settings: for pain assessed by the VAS, median change in score: median baseline 38
# Description: as §1, §2, §8, §9
# uterine fibroids [12] = assay: Example 1 Phase III study: volume of the three largest fibroids (TVUS)
# Description: as §1, §2, §8, §9
# [13] = follow-up visit, approximately 2 weeks after the third menstruation following 4th treatment course
# [14] = from day 10 until end of treatment
# [15] = from first day of menstruation on, or just prior to, first dose of UPA
structure (smiles),measurement,setting,value
"C#C[C@]1(OC(C)=O)CC[C@H]2[C@@H]3CCC4=CC(=O)CC[C@@H]4[C@H]3CC[C@@]21C [NETA, norethindrone (norethisterone) acetate]",women reporting events,"[1]; double-blind treatment phase, 10 days after UPA",11.2%
same,women with TEAEs,[1]; post-treatment phase,26.5%
same,heaviness of bleeding as measured by the PBAC score (days 1-8),[2]; first menstruation after each treatment course,decrease after each subsequent treatment course
same,median times to return of menstruation following discontinuation of UPA,"[2]; treatment courses 1-4, NETA group compared to placebo group, p<0.001",significantly shorter
same,median return to menstruation following end of UPA treatment,"uterine fibroids [3]; NETA 10 mg once-daily for 10 days after UPA, p≤0.001 vs placebo",14.0 days
same,median change in PBAC score,"uterine fibroids [3]; NETA treatment group, first menstruation following treatment completion compared to baseline, p=0.012 vs placebo",−122
same,"endometrium thickness, comparison of the 2 treatment groups",endometrium [4]; after each treatment course,placebo group were higher compared to those for the NETA group
same,extensive cyst formation (one of the features of PAEC),endometrium [5]; after NETA treatment,2.4%
same,percentage of non-physiological endometrial features,endometrium [5],22.6%
same,endometrial polyp,endometrium [5]; biopsy 12 weeks after UPA treatment,one benign endometrial polyp
same,cases of PAEC,"endometrium [5]; biopsy 12 weeks after UPA treatment, subgroup",no case of PAEC
same,safety and tolerability assessment,[6],did not raise any safety concerns
same,percentage of women with endometrial thickness >16 mm,"endometrium [7]; after NETA double-blind treatment, 0% at screening",3.5%
"CC(=O)O[C@]1(C(C)=O)CC[C@H]2[C@@H]3CCC4=CC(=O)CCC4=C3[C@@H](c3ccc(N(C)C)cc3)C[C@@]21C [UPA, 17α-acetoxy-11β[4-N,N-dimethylamino-phenyl)-19-norpregna-4,9-diene-3,20-dione]",SAE during the UPA treatment phase,[1]; UPA treatment phase,No SAE occurred
same,serious adverse events (SAEs) during the study,"[1]; all post-treatment, considered not related to study medication",Three serious adverse events (SAEs) were reported for two patients
same,"TEAE breast discomfort/tenderness, women",[1]; during UPA treatment,3.8%
same,"TEAE fatigue, women",[1]; during UPA treatment,4.3%
same,"TEAE headache, women",[1]; during UPA treatment,16.3%
same,"TEAE hot flushes, women",[1]; during UPA treatment,4.8%
same,"TEAE lower abdominal pain, women",[1]; during UPA treatment,3.3%
same,"TEAE nasopharyngitis, women",[1]; during UPA treatment,6.7%
same,"TEAE nausea, women",[1]; during UPA treatment,3.8%
same,"TEAE pelvic pain, women",[1]; during UPA treatment,3.8%
same,"TEAE vertigo, women",[1]; during UPA treatment,3.8%
same,TEAEs classified as severe,[1]; during UPA treatment,3.8%
same,women with TEAEs,[1]; during UPA treatment,57.4%
same,women with TEAEs considered to be UPA related,[1]; during UPA treatment,29.7%
same,uterine volume measured by US,"myomas; during the study, maintained after end of treatment",decreased during the study
same,"total volume of the 3 largest myomas, mean percent change from screening",myomas; end of 4th treatment course,−53.53%
same,"total volume of the 3 largest myomas, median percent change from screening",myomas; end of 4th treatment course,−72.08%
same,"total volume of the 3 largest myomas, mean percent change from screening",myomas; [13],−33.68%
same,"total volume of the 3 largest myomas, median percent change from screening",myomas; [13],−58.84%
same,mean E2 level,"[8]; Visit 5, during UPA treatment, screening mean 149.9 pg/mL",81.6 pg/mL
same,median E2 level,"[8]; Visit 5, during UPA treatment, screening median 120.0 pg/mL",55.0 pg/mL
same,"changes in ACTH, TSH, or prolactin",[8]; during UPA treatment,No significant changes
same,hepatic transaminases,"[8]; small number of patients, all resolved during continued treatment and/or by follow-up visit",marginal increase
same,subjects for whom surgery was not performed,[9],94.7%
same,"subjects with more than 9 days of any level of bleeding (heavy bleeding, bleeding or spotting)","[2]; days 9-90, treatment course 1",15.9%
same,"subjects with more than 9 days of any level of bleeding (heavy bleeding, bleeding or spotting)","[2]; days 9-90, treatment course 2",6.3%
same,"subjects with more than 9 days of any level of bleeding (heavy bleeding, bleeding or spotting)","[2]; days 9-90, treatment course 3",3.4%
same,"subjects with more than 9 days of any level of bleeding (heavy bleeding, bleeding or spotting)","[2]; days 9-90, treatment course 4",3.9%
same,percentage of subjects in amenorrhea,[2]; end of treatment course 1,79.5%
same,percentage of subjects in amenorrhea,[2]; end of treatment course 2,88.5%
same,percentage of subjects in amenorrhea,[2]; end of treatment course 3,88.2%
same,percentage of subjects in amenorrhea,[2]; end of treatment course 4,89.7%
same,return to menstruation,[2]; following the end of each treatment course,al but 4 subjects with available data returned to menstruation
same,mean time to amenorrhea,[2]; treatment course 1,9.4 days
same,median time to amenorrhea,[2]; treatment course 1,4.0 days
same,mean time to amenorrhea,[2]; treatment course 2,3.3 days
same,median time to amenorrhea,[2]; treatment course 2,2.0 days
same,mean time to amenorrhea,[2]; treatment course 3,5.3 days
same,median time to amenorrhea,[2]; treatment course 3,3.0 days
same,mean time to amenorrhea,[2]; treatment course 4,4.2 days
same,median time to amenorrhea,[2]; treatment course 4,3.0 days
same,percentage of amenorrheic patients,uterine fibroids [3]; end of 3-month UPA 10 mg once-daily treatment,78.5%
same,overall total median change in PBAC score,"uterine fibroids [3]; first menstruation following treatment completion compared to baseline, median baseline score 216",−91.5
same,patients on any particular day reporting any bleeding,uterine fibroids [3]; [14],< 5%
same,patients on any particular day reporting heavy bleeding,uterine fibroids [3]; [14],< 2%
same,mean time to amenorrhea,uterine fibroids [3]; [15],10.6 days
same,median time to amenorrhea,uterine fibroids [3]; [15],5.0 days
same,endometrium biopsy diagnosis by consensus review,"endometrium [4]; all biopsy samples, 3 independent pathologists",diagnosis of benign endometrium
same,incidence of non-physiological changes in endometrium biopsy samples,"endometrium [4]; epithelial changes, unusual vascular changes, extensive cyst formation",highest in samples taken following first treatment course and second treatment course
same,endometrium thickness,endometrium [4]; following a single treatment course of 3 months UPA,an increase in endometrium thickness was observed
same,frequency of PAEC,endometrium [4]; long-term repeated administration,independent of length of treatment
same,"patient-reported pain, 3 SF-MPQ Parts",[10]; all visits,improvement from baseline at all visits
same,UFS-QoL average symptom severity score,[10]; compared to baseline,improvement (decrease) from baseline
same,UFS-QoL HRQL total score,"[10]; on average, compared to baseline",improvement (increase)
same,"ED-5D questionnaire, pain/discomfort and anxiety/depression dimensions",[10]; throughout the study,improvement was sustained throughout the study
same,percentage of non-physiological endometrial features,endometrium [5],25.6%
same,endometrial histology,endometrium [5]; biopsy 12 weeks after UPA treatment (n=38),benign endometrial histology in all biopsies
same,endometrial histology,endometrium [5]; following double-blind treatment,benign in all cases
same,"pain, median change from baseline score",uterine fibroids [11]; Week 5,−5.0
same,"pain assessed by the VAS, median change in score",uterine fibroids [11]; Week 5,−21
same,"pain, median change from baseline score",uterine fibroids [11]; Week 9,−6.0
same,"pain assessed by the VAS, median change in score",uterine fibroids [11]; Week 9,−26
same,"QoL symptom severity, median change from baseline score",uterine fibroids [11]; after UPA treatment,−34.4
same,"health-related QoL (HRQL) total score, median increase compared to baseline",uterine fibroids [11]; after UPA treatment,28.5
same,"pain, median change from baseline score",uterine fibroids [11]; end of UPA treatment,−6.0
same,"pain assessed by the VAS, median change in score",uterine fibroids [11]; end of UPA treatment,−25
same,median change in the combined volume of the largest three fibroids,uterine fibroids [12]; after UPA treatment and return of menstruation,−45.8%
same,median change in the combined volume of the largest three fibroids,uterine fibroids [12]; between baseline and end of UPA treatment,−45.1%
same,women with a ≥25% reduction in the volume of the three largest fibroids,uterine fibroids [12]; in vivo,74.7%
same,safety and tolerability assessment,[6],well tolerated
same,percentage of women with endometrial thickness >16 mm,"endometrium [7]; end of UPA treatment, 1.5% at screening",9.1%
same,patients with endometrial thickness >16 mm,endometrium [7]; three months later,none of the patients assessed had a thickness >16 mm
